Data published in PMC5712356, “A New Ala-122-Asn Amino Acid Change Confers Decreased Fitness to ALS-Resistant Echinochloa crus-galli” (Frontiers in Plant Science, 2017).

Tested on: T1, ALS (acetolactate synthase; acetohydroxyacid synthase, AHAS; EC 2.2.1.6)
T1 construct: not purified; polyploid species, ALS gene copies not separated
Assay: acetoin (Westerfeld) colorimetric ALS assay, […] nm, log-logistic fit
Type: biochemical, Echinochloa crus-galli
Settings: sub-population S (no known ALS mutation); Na-pyruvate, MgCl2, TPP, FAD, pH 7.0, 37 °C, 90 min; partially purified leaf extract; read-out: I50

SMILES	IC50 [nM]
COCc1cnc(C2=NC(C)(C(C)C)C(=O)N2)c(C(=O)O)c1 (centres unmarked) [Imazamox]	1740
COc1cc(OC)nc(NC(=O)NS(=O)(=O)c2ncccc2C(=O)N(C)C)n1 [Nicosulfuron]	19
